How the values were obtained:
BRD4-BD1 = BRD4-BD1 (Homo sapiens (Human), UniProt O60885); test: AlphaLisa bromodomain binding assay, BRD4-BD1; conditions: Table 6; read-out: BRD4(1) IC50
JAK2 = JAK2 (Homo sapiens (Human), UniProt O60674); test: HTRF kinase assay, JAK2; assay type: biochemical; conditions: Table 6
JAK2, sequence (O60674 whole entry): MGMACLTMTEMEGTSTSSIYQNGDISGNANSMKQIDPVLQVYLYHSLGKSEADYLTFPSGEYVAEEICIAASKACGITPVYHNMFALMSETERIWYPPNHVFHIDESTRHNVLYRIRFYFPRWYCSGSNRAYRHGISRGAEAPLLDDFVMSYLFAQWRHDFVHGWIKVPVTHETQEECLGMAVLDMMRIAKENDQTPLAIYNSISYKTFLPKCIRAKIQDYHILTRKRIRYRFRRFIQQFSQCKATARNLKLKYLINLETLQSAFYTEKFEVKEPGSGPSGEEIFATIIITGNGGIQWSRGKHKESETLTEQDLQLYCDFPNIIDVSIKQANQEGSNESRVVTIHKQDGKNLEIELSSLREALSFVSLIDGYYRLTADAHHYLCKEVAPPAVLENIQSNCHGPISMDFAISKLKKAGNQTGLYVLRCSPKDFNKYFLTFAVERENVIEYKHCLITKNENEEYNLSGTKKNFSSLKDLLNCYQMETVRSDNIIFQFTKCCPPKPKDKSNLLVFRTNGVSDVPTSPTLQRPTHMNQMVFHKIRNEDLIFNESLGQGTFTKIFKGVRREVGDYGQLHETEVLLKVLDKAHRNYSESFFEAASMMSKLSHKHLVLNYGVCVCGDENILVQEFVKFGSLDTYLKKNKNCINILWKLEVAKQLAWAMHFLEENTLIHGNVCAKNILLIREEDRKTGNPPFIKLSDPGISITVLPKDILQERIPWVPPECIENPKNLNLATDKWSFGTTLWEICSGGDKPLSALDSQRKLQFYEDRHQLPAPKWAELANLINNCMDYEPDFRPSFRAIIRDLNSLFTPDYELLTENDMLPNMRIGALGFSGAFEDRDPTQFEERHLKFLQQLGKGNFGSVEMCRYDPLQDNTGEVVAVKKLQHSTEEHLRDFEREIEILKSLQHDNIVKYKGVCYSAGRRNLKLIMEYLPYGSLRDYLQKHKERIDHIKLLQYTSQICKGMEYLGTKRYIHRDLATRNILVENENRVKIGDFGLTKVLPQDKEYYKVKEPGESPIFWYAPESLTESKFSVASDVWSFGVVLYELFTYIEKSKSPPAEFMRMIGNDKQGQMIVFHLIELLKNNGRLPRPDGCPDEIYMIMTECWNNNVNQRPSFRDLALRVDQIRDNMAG

Row | Compound | IC50 (BRD4-BD1) [nM] | IC50 (JAK2) [nM]
1 | Cc1noc(C)c1-c1cccc(-n2ccc3cnc(Nc4ccc(N5CCN(C)CC5)cc4)nc32)c1 [drawing 285] | 2330 | 3
2 | CN1CCN(c2ccc(Nc3ncc4ccn(-c5cccc(NS(=O)(=O)c6ccccc6)c5)c4n3)cc2)CC1 [drawing 287] | 10000 | 3
3 | Cc1cnc(Nc2ccc(N3CCN(C)CC3)cc2)nc1Nc1cccc(NS(=O)(=O)C(C)(C)C)c1 [drawing 292] | 280 | 9
4 | CC(C)(C)S(=O)(=O)Nc1cccc(-n2ccc3cnc(Nc4ccc(N5CCNCC5)cc4)nc32)c1 [drawing 306] | 394 | 10
5 | O=S(=O)(Nc1cccc(-n2ccc3cnc(Nc4ccc(N5CCNCC5)cc4)nc32)c1)C1CC1 [drawing 307] | 1350 | 5
6 | O=S(=O)(Nc1cccc(-n2ccc3cnc(Nc4ccc(N5CCNCC5)cc4)nc32)c1)C1CC1 [drawing 320] | 451 | 6
7 | Cc1cnc(Nc2ccc(N3CCN(C)CC3)cc2)nc1Nc1cccc(NS(=O)(=O)C(C)(C)C)c1 [drawing 339] | 235 | 43
8 | CN1CCN(c2ccc(Nc3ncc4ccn(-c5ccc(F)c(NS(=O)(=O)C(C)(C)C)c5)c4n3)cc2)CC1 [drawing 340] | 228 | 188
9 | Cc1cnc(Nc2ccc(N3CCN(C)CC3)cc2)nc1Nc1cccc(NS(=O)(=O)C(C)(C)C)c1 [drawing 353] | 278 | 6.6
10 | CN1CCN(c2ccc(Nc3ncc4ccn(-c5cccc(NS(=O)(=O)C6CC6)c5)c4n3)cc2)CC1 [drawing 356] | 1800 | 8
11 | CN1CCN(c2ccc(Nc3ncc4ccn(-c5ccc(NS(=O)(=O)C(C)(C)C)cc5)c4n3)cc2)CC1 [drawing 362] | 10000 | 0.7
12 | Cc1cnc(Nc2ccc(N3CCN(C)CC3)cc2)nc1Nc1cccc(NS(=O)(=O)C(C)(C)C)c1 [drawing 375] | 316 | 9.3
13 | CN1CCN(c2ccc(Nc3ncc4ccn(-c5ccc(CNS(=O)(=O)C(C)(C)C)cc5)c4n3)cc2)CC1 [drawing 378] | 10000 | 0.18
14 | CN1CCN(c2ccc(Nc3ncc4ccn(-c5ccc6c(c5)CCN6S(=O)(=O)C(C)(C)C)c4n3)cc2)CC1 [drawing 398] | 10000 | 0.6
15 | CN(C)C1CCN(c2ccc(Nc3ncc4ccn(-c5cccc(NS(=O)(=O)C(C)(C)C)c5)c4n3)cc2F)CC1 [drawing 401] | 377 | 4.4
16 | CC(C)(C)S(=O)(=O)Nc1cccc(-n2ccc3cnc(Nc4ccc5c(c4)CC4CNCCN54)nc32)c1 (stereo not shown) [drawing 404] | 393 | 18
17 | Cc1cnc(Nc2ccc(N3CCN(C)CC3)cc2)nc1Nc1cccc(NS(=O)(=O)C(C)(C)C)c1 [drawing 405] | 208 | 14
18 | CC(C)(C)S(=O)(=O)Nc1cccc(Nc2nc(NC3CCNCC3)nc3sccc23)c1 [drawing 406] | 1200 | 10000
19 | CN1CCC(Nc2nc(Nc3ccc4c(c3)N(S(=O)(=O)C(C)(C)C)CC4)c3ccsc3n2)CC1 [drawing 407] | 315 | 10000
20 | CN(C)C1CCN(c2ccc(Nc3ncc4ccn(-c5cccc(NS(=O)(=O)C(C)(C)C)c5)c4n3)cc2)CC1 [drawing 409] | 229 | 6.5
21 | CC(C)(C)S(=O)(=O)Nc1cccc(-n2ccc3cnc(Nc4ccc5c(c4)CC4CNCCN54)nc32)c1 (stereo not shown) [drawing 411] | 306 | 13
22 | CC(C)(C)S(=O)(=O)Nc1cccc(-n2ccc3cnc(Nc4ccc(N5CCNCC5)c(F)c4)nc32)c1 [drawing 431] | 248 | 9.6
23 | CN(C)C1CCN2c3ccc(Nc4ncc5ccn(-c6cccc(NS(=O)(=O)C(C)(C)C)c6)c5n4)cc3CC2C1 (stereo not shown) [drawing 444] | 268 | 8
24 | CNC1CCN(c2ccc(Nc3ncc4scc(-c5ccc(F)c(NS(=O)(=O)C(C)(C)C)c5)c4n3)cc2F)CC1 [drawing 459] | 308 | 21
25 | CNCCOc1ccc(Nc2ncc3ccn(-c4cccc(NS(=O)(=O)C(C)(C)C)c4)c3n2)cc1F [drawing 460] | 2300 | 50
26 | CNCCOc1ccc(Nc2ncc3ccn(-c4cccc(NS(=O)(=O)C(C)(C)C)c4)c3n2)cc1F [drawing 467] | 1300 | 79

These reach a lower IC50 (BRD4-BD1). Values come first.

Row | IC50 (BRD4-BD1) [nM] | IC50 (JAK2) [nM] | Compound
27 | 190 | 5 | CN(C)C1CCN(c2ccc(Nc3ncc4ccn(-c5cccc(NS(=O)(=O)C(C)(C)C)c5)c4n3)cc2)CC1 [drawing 368]
28 | 174 | 8 | CC(C)(C)S(=O)(=O)Nc1cccc(-n2ccc3cnc(Nc4ccc(N5CCNCC5)c(F)c4)nc32)c1 [drawing 432]
29 | 166 | 13 | Cc1cnc(Nc2ccc(N3CCN(C)CC3)cc2)nc1Nc1cccc(NS(=O)(=O)C(C)(C)C)c1 [drawing 321]
30 | 155 | 7 | Cc1cnc(Nc2ccc(N3CCN(C)CC3)cc2)nc1Nc1cccc(NS(=O)(=O)C(C)(C)C)c1 [drawing 396]
31 | 153 | 27 | CN(C)C1CCN(c2ccc(Nc3ncc4ccn(-c5ccc(F)c(NS(=O)(=O)C(C)(C)C)c5)c4n3)cc2F)CC1 [drawing 373]
32 | 141 | 6 | Cc1cnc(Nc2ccc(N3CCN(C)CC3)cc2)nc1Nc1cccc(NS(=O)(=O)C(C)(C)C)c1 [drawing 391]
33 | 138 | 10 | Cc1cnc(Nc2ccc(N3CCN(C)CC3)cc2)nc1Nc1cccc(NS(=O)(=O)C(C)(C)C)c1 [drawing 384]
34 | 134 | 130 | CN1CCC(NC(=O)c2ccc(Nc3ncc4ccn(-c5ccc(F)c(NS(=O)(=O)C(C)(C)C)c5)c4n3)cc2F)CC1 [drawing 363]
35 | 131 | 3 | CN(C)C1CCN(c2ccc(Nc3ncc4ccn(-c5cccc(NS(=O)(=O)C(C)(C)C)c5)c4n3)cc2F)CC1 [drawing 371]
36 | 131 | 3 | CN(C)C1CCN(c2ccc(Nc3ncc4ccn(-c5cccc(NS(=O)(=O)C(C)(C)C)c5)c4n3)cc2F)CC1 [drawing 385]
37 | 125 | 76 | CC(C)(C)S(=O)(=O)Nc1cc(-n2ccc3cnc(Nc4ccc(N5CCNCC5)c(F)c4)nc32)ccc1F [drawing 430]
38 | 105 | 12 | CN(C)C1CCN2c3ccc(Nc4ncc5ccn(-c6cccc(NS(=O)(=O)C(C)(C)C)c6)c5n4)cc3CC2C1 (stereo not shown) [drawing 445]
39 | 94 | 360000 | CN1CCC(NC(=O)c2ccc(Nc3ncc4ccn(-c5ccc(F)c(NS(=O)(=O)C(C)(C)C)c5)c4n3)cc2F)CC1 [drawing 335]
40 | 63 | 27 | CN(C)C1CCN(c2ccc(Nc3ncc4ccn(-c5ccc(F)c(NS(=O)(=O)C(C)(C)C)c5)c4n3)cc2F)CC1 [drawing 397]
41 | 63 | 43 | CN(C)C1CCN(c2ccc(Nc3ncc4ccn(-c5ccc(F)c(NS(=O)(=O)C(C)(C)C)c5)c4n3)cc2F)CC1 [drawing 408]

From US11279703B2, “Fused pyrimidine compounds as BRD4 and JAK2 dual inhibitors and methods for use thereof” (APTOSE BIOSCIENCES INC., priority 2016, dated 2022)
